{"source": "patent US20220378714A1", "about": "“USE OF CANNABIDIOL PREPARATIONS IN THE TREATMENT OF FRAGILE X SYNDROME” (GW Research Limited, priority 2019, published 2022)", "assay_type_in_all_cases": "in vivo", "key": {"[1]": {"tested_on": "Fmr1 KO mice", "assay": "Behavioral testing (cohort 2), overall conclusion", "details": "20 and 200 mg/kg i.p. once daily", "procedure": "Test compounds were evaluated at 2 doses each (20 and 200 mg/kg). Test compounds were injected i.p. (intraperitoneal) acutely at 60 min pre-treatment for audiogenic seizures (cohort 1). For all other behavioural testing, a separate cohort of animals were dosed i.p. once per day for 2 weeks prior to the start of testing and then for 2 weeks during testing, with 60 min pre-treatment on test days (cohort 2).\n(§1) 60 male mice were tested at 8 weeks of age. CBD (SYN OR BOT 0.08%) were evaluated at 2 doses each (20 and 200 mg/kg) following once daily intraperitoneal administration, at a dose volume of 10 ml/kg. Compounds were administered for 2 weeks prior to the start of testing and throughout testing.\n(§2) On the test day, compounds were administered 60 minutes prior to test."}, "[2]": {"tested_on": "Fmr1 KO mice", "assay": "Social interaction (three-chamber paradigm)", "details": "higher dose (200 mg/kg i.p.)", "procedure": "as §1, §2\nThe three-chamber paradigm is used to assess social interest. The Plexiglas testing apparatus consists of two side chambers and a center chamber, each 42.5 cm×17.5 cm×23 cm. […]\nGroup-housed naïve partner mice (age-matched C3H mice) were habituated to the chamber for 30 minutes the day before testing. […] The doorways were then lifted and the subject was allowed to feely explore all three chambers for 10 min while movement was video-recorded and scored manually for sniffing of the mouse or object. […]\nDiscrimination percentage for time spent in chambers was calculated as (total time spent in mouse chamber-total time spent in object)/(total time spent in mouse+total time in object chamber)*100 and presented in FIG. 4.\nDiscrimination percentage for interaction frequency was calculated as (number of interactions with mouse−number of interactions with object)/(total number of interactions with the mouse+the object)*100 and is presented in FIG. 5. […]"}, "[3]": {"tested_on": "Fmr1 KO mice", "assay": "Audiogenic seizures (cohort 1)", "details": "200 mg/kg i.p. acute, 60 min pre-treatment, vs vehicle-treated Fmr1 KO", "procedure": "48 male mice were tested at 3 weeks of age. CBD (SYN OR BOT 0.08%) were tested at 2 doses each (20 and 200 mg/kg) following acute intraperitoneal administration at a dose volume of 10 ml/kg. Compounds were administered 60 minutes prior to test.\nFollowing pre-treatment with vehicle or test compound, mice were individually placed in a Plexiglas chamber and allowed to explore for 15 s following which they were exposed to a 125 dB tone for 2 minutes, followed by 1 minute of no sound, and then a further 2 minute tone. The mice were scored based on their response, latency, and seizure intensity:\nThe following endpoints were reported: • 1. Latency to seize: Time to first seizure (maximum 300 s). […] Latency to respiratory arrest: Time to death (maximum 300 s). Animals that survived received a score of 300 s. • 3. Seizure Score: Maximum score animals obtained during the 5 minute test."}, "[4]": {"tested_on": "Fmr1 KO mice", "assay": "Open field", "procedure": "as §1, §2\nThe open field chambers are Plexiglas square chambers (27.3×27.3×20.3 cm; Med Associates Inc., St Albans, Vt.) surrounded by infrared photo beams (16×16×16) to measure horizontal and vertical activity. On the day of testing, mice were brought to the activity experimental room for acclimation to the conditions at least 1 h prior to testing. After a 60 minute pretreatment time, mice were placed in the center of an open field activity box for a 60 minute test period. After the completion of the test, mice were placed back in their home cage.\nThe time courses for locomotor and rearing activities were presented in 5-minute bins during the 60 minute test. Total distance traveled, and numbers of rears were also summed during the 60 minute test."}}}
{"compound": "C=C(C)[C@@H]1CCC(C)=C[C@H]1c1c(O)cc(CCCCC)cc1O", "note": "[CBD (SYN), cannabidiol]", "values": [{"measurement": "social or memory related behaviors", "setting": "[1]", "result": "Neither the botanically derived purified CBD or the synthetic CBD were found to have any significant improvement"}, {"measurement": "discrimination percentage for time spent in chambers", "setting": "[2]; Dunn's test vs vehicle-treated Fmr1 KO", "result": "enhanced discrimination compared to vehicle-treated Fmr1 KO mice"}, {"measurement": "total time spent in the partner mouse chamber", "setting": "[2]; Sidak's test vs Fmr1 KO vehicle", "result": "spent significantly more time in the partner mouse chamber"}, {"measurement": "median seizure score", "setting": "[3]", "result": "This effect was not observed"}, {"measurement": "total distance traveled during the 60 minute test period", "setting": "[4]; 20 mg/kg i.p. once daily, 60 min pre-treatment", "result": "traveled significantly more than mice treated with CBD (BOT 0.08%) 20 mg/kg"}, {"measurement": "rearing frequency in 5 min bins: periods in which Fmr1 KO-vehicle treated mice reared significantly more than the treated group", "setting": "[4]; 200 mg/kg i.p. once daily, post-hoc multiple comparisons", "result": "during minutes 35-40 and during minutes 55-60"}]}
